Measurements reported in patent US20240316196A1, “METHODS AND COMPOSITIONS FOR DIFFERENTIATION OF PLURIPOTENT STEM CELLS AND DERIVED NATURAL KILLER CELLS” (NUWACELL BIOTECHNOLOGIES CO., LTD., priority 2022, published 2024).

What was measured:
hiPSCs = assay: Directed differentiation of hiPSCs into HE (KDR+), HP (CD34+) and iNK (CD56+) cells, flow cytometry; format: cell-based, human; details: for output of CD34^+ HP cells / output of CD56^+ iNK cells: added during Stage 1-4 (XAV939 5 μM, SB431542 6 μM); for output of CD34^+ HP cells: Day 10, vs control without both (FIG. 8A); for output of CD56^+ iNK cells: Day 25, vs control without both (FIGS. 8B, 8C)
Protocol: hiPSCs were prepared as described in CN108373998B. The effect of plate coating during Stage 2 on iNK differentiation was further evaluated. On Day −1, Embryoid body (EB) formation (Stage 1-1) was carried out by placing individualized hiPSCs in E8 medium containing 10 μM Blebbistatin in T25 flasks on a bellydancer and culture overnight. On Day 0, lateral mesoderm differentiation (Stage 1-2) was initiated by changing the medium to a Stage 1-2 differentiation medium comprising CD34A basal medium and supplemented with BMP4 (25 ng/mL), VEGF (15 ng/mL), bFGF (0.5 ng/mL) and CHIR99021 (4 μM) for 2 days. On Day 2, lateral mesoderm differentiation (Stage 1-3) continued for 1 day in a Stage 1-3 differentiation medium comprising CD34A basal medium and supplemented with BMP4 (25 ng/mL), VEGF (15 ng/mL) and bFGF (0.5 ng/mL) and CHIR99021 (4 μM). On Day 3, HE specification (Stage 1-4) was initiated by adding a Stage 1-4 differentiation medium comprising CD34A basal medium and supplemented with insulin (5 μg/mL), VEGF (15 ng/mL), bFGF (5 ng/mL), SB431542 (6 μM) for 1 day. On Day 4 (the end of Stage 1-4), HP differentiation (Stage 1-5) in was initiated by adding a Stage 1-5 differentiation medium comprising CD34A basal medium and supplemented with SCF (10 ng/mL), Flt3L (10 ng/mL), VEGF (15 ng/mL) and bFGF (5 ng/mL). To initiate the differentiation from HP cells into iNK cells (Stage 2), EBs of Day 11 were collected and seeded in 24-well-plates without matrix or coated with DLL4 and VCAM1, in a Stage 2 differentiation medium comprising NKSFM and supplemented with SCF (20 ng/mL), Flt3L (10 ng/mL), IL-7 (25 ng/mL), IL-3 (5 ng/mL), IL-15 (10 ng/mL) for 14 days. On Day 25 (Stage 2-wk2), derived cells were counted and stained with CD56-PE antibody, the percentage of CD56+ iNK cells was detected by flow cytometry. […] The differentiation from hPSCs to immature iNK cells was accomplished in only 26 days. Furthermore, the percentage of CD56+CD3−iNK cells at the end of Stage 2 is as high as 80.56% when differentiation was performed with NKSFM and DLL4/VCAM1.
hiPSCs were prepared as described in CN108373998B. On Day −1, Embryoid body (EB) formation (Stage 1-1) was carried out by placing individualized hiPSCs in E8 medium containing 10 μM Blebbistatin in T25 flasks on a bellydancer and culture overnight. On Day 0, lateral mesoderm differentiation (Stage 1-2) was initiated by changing the medium to a Stage 1-2 differentiation medium comprising IF-4 basal medium and supplemented with BMP4 (25 ng/mL), VEGF (50 ng/mL), bFGF (0.5 ng/mL) and CHIR99021 (4 μM) for 2 days. On Day 2, lateral mesoderm differentiation (Stage 1-3) continued for 1 day in a Stage 1-3 differentiation medium comprising IF-4 basal medium and supplemented with BMP4 (25 ng/mL), VEGF (50 ng/mL) and bFGF (0.5 ng/mL) and CHIR99021 (1 μM). On Day 3, HE specification (Stage 1-4) was initiated by adding a Stage 1-4 differentiation medium comprising IF-4 basal medium and supplemented with VEGF (50 ng/mL), bFGF (5 ng/mL), and without or with XAV939 (5 μM) and/or SB431542 (6 μM) for 1 day. On Day 4, HP differentiation (Stage 1-5) was initiated by adding a Stage 1-5 differentiation medium comprising NKSFM and supplemented with SCF (50 ng/mL), Flt3L (10 ng/mL), VEGF (15 ng/mL) and bFGF (5 ng/mL) for 6 days. On Day 10 (the end of Stage 1), EBs were dissociated into single cells and stained with CD34-APC antibody (BD, #555824), the percentage of CD34^+ HP cells was detected by flow cytometry. To initiate the differentiation from HP cells into iNK cells (Stage 2), EBs were collected and seeded in 24-well-plates coated with matrix proteins, DLL4 and VCAM1, in a Stage 2 differentiation medium comprising NKSFM and supplemented with SCF (20 ng/mL), Flt3L (10 ng/mL), IL-7 (25 ng/mL), IL-3 (5 ng/mL), IL-2 (700 IU/mL), IL-15 (10 ng/mL) for 15 days. On Day 25 (the end of Stage 2), derived cells were counted and stained with CD56-PE antibody (BD, #555516), the percentage of CD56^+ iNK cells was detected by flow cytometry. […]

PBNK cells = assay: Expansion of PBNK cells from PBMCs (NK cell expansion fold; CD56+CD3− % by flow cytometry); format: cell-based; details: NAM 0-5 mM in basal medium
Protocol: The effect of the concentration of nicotinamide (NAM) in an exemplary basal medium on NK cell expansion was evaluated. The above basal medium comprised the following components: IMDM (Sigma): RPMI1640 (Gibco) (50%: 50%); about 1.3 ng/mL of Cupric sulfate, about 3 μM of Ferric sulfate, about 0.432 μg/mL of Zinc sulfate, about 1-50 ng/mL of Na Selenite, about 110 μg/mL of Sodium pyruvate, 0.1-20 μg/mL of Insulin, 1-200 μg/mL of Transferrin, about 1%(v/v) of GlutaMAX-1, 0.1-20 mg/mL of HSA, 1-400 μM of MTG, about 80 μg/mL of Ascorbic acid and indicated concentration of NAM. Peripheral blood mononuclear cells (PBMCs) were isolated by density gradient centrifugation using Ficoll-Paque. On Day 0, PBMCs were plated at 1×10^6 cells/mL in a 48-well-plate in the basal medium with NAM (either 0, 1, 2, 2.5, 3, 3.5, 4, or 5 mM) and stimulated with the following reagents for 3 days: immobilized CD16 antibody (Biolegend, 302014) (135 ng/cm^2), IL-2 (700 IU/mL), IL-15 (10 ng/mL) and OK432 (0.01 KE/mL). On day 3, cells were re-suspended in the above basal medium supplemented with IL-2 (700 IU/mL) and IL-15 (10 ng/mL). Fresh medium was added every other day to maintain cell density below 2×10^6 cells/mL. Cells were collect on Day 14 and stained with CD56-PE and CD3-PerCP-Cy5.5 antibodies, the percentage of CD56^+CD3^− NK cells was analyzed by flow cytometry.
The effect of heparin sodium concentration in an exemplary NKSFM on NK cell expansion was also evaluated. NKSFM comprised the following components: IMDM (Sigma): DMEM/F12 (Gibco) (50%: 50%); about 20 μM of Ethanolamine, about 1-50 ng/mL of Na Selenite, about 110 μg/mL of Sodium pyruvate, 0.1-20 μg/mL of Insulin, 1-200 μg/mL of Transferrin, about 1%(v/v) of GlutaMAX-1, 0.1-20 mg/mL of Human serum albumin, 1-400 μM of MTG, about 80 μg/mL of Ascorbic acid, about 1-5 mM of NAM, 4%(v/v) of PLT, and indicated concentration of heparin sodium. PBMCs were isolated by density gradient centrifugation using Ficoll-Paque. On Day 0, PBMCs were plated at 1×10^6 cells/mL in a 48-well-plate in NKSFM with heparin sodium (0, 0.5, 1, 3, 10, 30, or 50 μg/mL) and stimulated with the following reagents for 3 days: immobilized CD16 antibody (Biolegend, 302014) (135 ng/cm^2), OK432 (0.01 KE/mL), NeoIL-2 (50 ng/mL), IL-12 (10 ng/mL), IL-18 (50 ng/mL). […] Cells were collect on Day 13 and stained with CD56-PE and CD3-PerCP-Cy5.5 antibodies, the percentage of CD56^+CD3^− NK cells was analyzed by flow cytometry. The specific lysis of K562 tumor cells by NK cells were assessed by CFSE/7-AAD cytotoxicity assay. […] After incubation for 4 hours, cells were stained with 7-AAD (Live/dead staining) and analyzed with flow cytometry.
The effect of PLT percentage (v/v) in an exemplary NKSFM on NK cell expansion was evaluated. […]

[1] = higher VEGF concentration during Stage 1-5

Cc1c[nH]c(-c2cnc(NCCNc3ccc(C#N)cn3)nc2-c2ccc(Cl)cc2Cl)n1 [CHIR99021]
differentiation into CD34+ HP cells (hiPSCs; higher concentration during Stage 1-2 (5, 6, 7, 8 μM), Day 7 (FIG. 9A)): generally more advantageous | differentiation into CD56+ iNK cells (hiPSCs; higher concentration during Stage 1-2 (5, 6, 7, 8 μM), Day 24 (FIGS. 9B, 9C)): somewhat disadvantageous | differentiation into CD34+ HP cells (hiPSCs; lower concentration during Stage 1-3 (0-4 μM), Day 7 (FIG. 10A)): somewhat disadvantageous | differentiation into CD56+ iNK cells (hiPSCs; lower concentration during Stage 1-3 (0-4 μM), Day 24 (FIGS. 10B, 10C)): generally more advantageous

Oc1nc(-c2ccc(C(F)(F)F)cc2)nc2c1CSCC2 [XAV939]
output of CD34^+ HP cells (hiPSCs): significantly promotes | output of CD56^+ iNK cells (hiPSCs): significantly promotes

NC(=O)c1ccc(-c2nc(-c3ccc4c(c3)OCO4)c(-c3ccccn3)[nH]2)cc1 [SB431542]
output of CD34^+ HP cells (hiPSCs): improvement in increasing CD34^+ HP cell production at a certain degree | output of CD56^+ iNK cells (hiPSCs): does not show any improvement

VEGF
HP and iNK cell differentiation (hiPSCs; Example 12: higher concentration during Stage 1, especially Stage 1-2, 1-3 and 1-4 (Table 3.2, FIG. 12)): significantly improves | percentage of KDR+ HE cells, effect of concentration (hiPSCs; VEGF 15-100 ng/mL in Stage 1 substages (Table 3.1), Day 4 (FIG. 11A)): minimal effects | percentage of CD34+ HP cells, effect of concentration (hiPSCs; VEGF 15-100 ng/mL in Stage 1 substages (Table 3.1), Day 10 (FIG. 11B)): significantly impacts | efficiency of further differentiation into iNK cells, effect of concentration (hiPSCs; VEGF 15-100 ng/mL in Stage 1 substages (Table 3.1), Day 24 morphology (FIG. 11C)): significantly impacts | differentiation into HP cells and iNK cells (hiPSCs; higher VEGF concentration during Stage 1-2 and Stage 1-3): generally beneficial | differentiation into HP cells (hiPSCs; [1]): generally beneficial | differentiation into iNK cells (hiPSCs; [1]): not into iNK cells

NC(=O)c1cccnc1 [NAM, nicotinamide]
NK cell expansion fold, effect of concentration (PBNK cells; Day 14 (FIG. 2A)): significantly impacts | percentage of CD56^+CD3^− NK cells, effect of concentration (PBNK cells; Day 14 (FIG. 2B)): minimal effects
